Experimental data as given in PMC7996082, “The translocator protein ligands as mitochondrial functional modulators for the potential anti-Alzheimer agents” (Journal of Enzyme Inhibition and Medicinal Chemistry, 2021).

Tests used:
[1] = MTT assay: HT22 cell viability with compound alone; type: cell-based, mouse; conditions: mouse, HT22 cells; HT22 cell viability after 24 h of treatment with 5 μM compound, no Aβ
Method: To a clear 96-well plate (FALCON), the cultured HT-22 cells were seeded in a number of 5,000 per well 24 h prior to the assay. A solution of each test compound (5 µM, 25 µL) was added to each well. After 24 h of incubation at 37 °C, the cells were treated with a 10 µL of MTT solution (3–(4,5-dimethylthiazol-2-yl)-2,5-diphenyltetrazolium bromide, Sigma-Aldrich), incubated for 2 h at 37 °C, and were treated with 135 µL of MTT solubilising solution (10% Triton-X 100 in isopropanol with 0.1 M HCl) for 2 h at 37 °C. The % values of cell viability were determined by using the optical density (OD) values at 560 nm, and normalised by taking the vehicle control (5 µM of DMSO) as […].

CYP2C19 = target: T1, CYP2C19 (Homo sapiens, UniProt P33261); experiment: CYP inhibition assay (Vivid CYP450 screening kit); type: in vitro ADME; conditions: 10 μM compound
T1 construct: purchased Invitrogen, Madison, WI, USA
Method: (§1) Human CYP450 (CYP1A2, 2D6, 2C9, 2C19, and 3A4) activities were determined by using the Vivid® CYP450 screening kit (Invitrogen, Madison, WI, USA) in a clear 96-well plate. Five positive controls were used as 10 mM solutions in MeCN for five different CYP450 enzymes: CYP1A2 (α-naphthoflavone), CYP2D6 (quinidine), CYP2C9 (sulfaphenazole), CYP2C19 (lansoprazole), and CYP3A4 (ketoconazole). Each sample (test compounds, positive inhibition controls, and solvent controls) was added into each well with the Master Pre-Mix [CYP450 BACULOSOMES® Reagent (recombinant human CYP450 isozyme and rabbit NADPHP450 reductase) and Regeneration System (3.3 mM glucose-6-phosphate and 0.3 U/ml glucose-6-phosphate dehydrogenase in 100 mM potassium phosphate, pH 8.0)]. The mixture was incubated for 5 min at 37 °C, and the Vivid® CYP substrates and 0.1 mM NADP^+ buffer were added to initiate the CYP450 enzyme reaction. The % remaining activities of CYP450 were measured after 20 min by using a fluorescent plate reader (Flexstation® 3, Molecular Devices, USA).

CYP1A2 = target: T2, CYP1A2 (Homo sapiens, UniProt P05177); experiment: CYP inhibition assay (Vivid CYP450 screening kit); type: in vitro ADME; conditions: 10 μM compound
T2 construct: purchased Invitrogen, Madison, WI, USA
T2 sequence (P05177 2-516 limits assumed): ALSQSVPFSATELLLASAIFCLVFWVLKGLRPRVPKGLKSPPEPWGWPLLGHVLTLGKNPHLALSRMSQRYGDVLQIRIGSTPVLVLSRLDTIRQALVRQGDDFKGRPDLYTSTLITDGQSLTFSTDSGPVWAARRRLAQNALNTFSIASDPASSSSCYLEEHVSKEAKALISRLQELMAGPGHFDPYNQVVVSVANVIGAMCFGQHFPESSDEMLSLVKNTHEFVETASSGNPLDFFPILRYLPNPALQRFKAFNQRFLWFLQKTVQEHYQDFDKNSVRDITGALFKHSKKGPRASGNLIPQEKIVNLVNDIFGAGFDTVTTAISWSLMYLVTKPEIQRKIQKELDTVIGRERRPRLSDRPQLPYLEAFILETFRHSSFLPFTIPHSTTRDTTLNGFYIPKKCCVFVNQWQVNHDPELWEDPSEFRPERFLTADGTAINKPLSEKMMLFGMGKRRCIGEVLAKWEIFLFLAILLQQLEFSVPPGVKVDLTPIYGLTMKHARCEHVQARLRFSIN
Method: as §1

CYP2C9 = target: T3, CYP2C9 (Homo sapiens, UniProt P11712); experiment: CYP inhibition assay (Vivid CYP450 screening kit); type: in vitro ADME; conditions: 10 μM compound
T3 construct: purchased Invitrogen, Madison, WI, USA
Method: as §1

CYP3A4 = target: T4, CYP3A4 (Homo sapiens, UniProt P08684); experiment: CYP inhibition assay (Vivid CYP450 screening kit); type: in vitro ADME; conditions: 10 μM compound
T4 construct: purchased Invitrogen, Madison, WI, USA
Method: as §1

CYP2D6 = target: T5, CYP2D6 (Homo sapiens, UniProt P10635); experiment: CYP inhibition assay (Vivid CYP450 screening kit); type: in vitro ADME; conditions: 10 μM compound
T5 construct: purchased Invitrogen, Madison, WI, USA
Method: as §1

hERG channel = target: T6, hERG channel (Homo sapiens, UniProt Q12809); experiment: hERG inhibition assay (automated patch-clamp, CHO-K1 Tet-On hERG cells); type: cell-based; conditions: patch-clamp, ± SD
T6 construct: host or cells: CHO-K1 Tet-On hERG cells
Method: For automated patch-clamp NPC-16 Patchliner (Nanion Technologies, München, Germany) recordings, CHO-K1 Tet-On hERG cells (IonGate Biosciences GmbH, Frankfurt, Germany) were plated into 100-mm cell culture dishes. Whole-cell currents were recorded with the intracellular solution containing: 50 mM KCl, 60 mM KF, 10 mM NaCl, 2 mM MgCl2, 20 mM EGTA and 10 mM HEPES (pH 7.2), and with the extracellular solution containing: 140 mM NaCl, 4 mM KCl, 2 mM CaCl2, 1 mM MgCl2, 5 mM Glucose and 10 HEPES (pH 7.4). To assist stable seal formations, the seal enhancer containing: 80 mM NaCl, 3 mM KCl, 35 mM CaCl2, 10 mM MgCl2 and 10 mM HEPES (pH 7.4) was used only at the seal formation step. Prior to the whole-cell recordings, the external seal enhancing solution was exchanged to the extracellular solution described above. hERG channel currents were recorded using the parallel EPC-10 patch-clamp amplifiers (HEKA Elektronik, Lambrecht/Pfalz, Germany), and low-pass filtered (10 kHz) with a 4-pole Bessel filter. Cell suspension and patch solutions were automatically added onto the four recording wells in the microfabricated disposable chip (NPC-16 Chip, Nanion Technologies, München, Germany). To obtain the inhibitory constants, hERG tail currents were evoked by repolarizing steps to −50 mV for 500 ms preceded by a 500-ms depolarisation potential of +20 mV at a holding potential of −80 mV with a 20-s sweep interval. Whole-cell currents were acquired and digitised at 5 kHz using Patchmaster (HEKA Elektronik, Lambrecht/Pfalz, Germany). The extracellular solution was exchanged to the extracellular solution containing each blocker via four pipette tips of NPC-16 Patchliner using a 4-fold volume of solution (40 µL) with a speed of 4 µL/s, and the exchanged blocker solution was applied for 100–200 s to the patch-clamped cells until blocker binding had reached equilibrium by monitoring hERG tail currents. Whole-cell recordings were analysed using the Patchmaster/Fitmaster (HEKA Elektronik, Lambrecht/Pfalz, Germany), IGOR Pro (WaveMetrics Inc., Portland, OR, USA), and the GraphPad Prism 4.0 (GraphPad Software, Inc., La Jolla, CA, USA) software.

[2] = Liver microsomal stability; type: in vitro ADME; conditions: human, liver microsomes, 1 µM compound, 0.5 mg/mL microsomes, 30 min, 37 °C; read-out: Human Liver Microsomal Stability (% remaining after 30 min)
Method: Liver microsomes (human, dog, rat, and mouse; 0.5 mg/mL) were incubated with 1 µM of each test compound in the presence of potassium phosphate buffer (PPB) for 5 min at 37 °C. A solution of the NADPH regeneration system (#44332000, Oriental Yeast Co., Japan) was added to begin metabolic reactions of liver microsomes. The resulting mixtures were incubated for 30 min at 37 °C, and the reaction was terminated by the addition of a cold MeCN solution containing an internal standard (chlorpropamide). The mixture was separated by centrifugation (14,000 rpm for 5 min at 4 °C), and the supernatant was analysed by LC-MS/MS (Shimadzu Nexera XR system and TSQ vantage; Thermo Scientific).

T4 sequence (P08684 2-503 limits assumed): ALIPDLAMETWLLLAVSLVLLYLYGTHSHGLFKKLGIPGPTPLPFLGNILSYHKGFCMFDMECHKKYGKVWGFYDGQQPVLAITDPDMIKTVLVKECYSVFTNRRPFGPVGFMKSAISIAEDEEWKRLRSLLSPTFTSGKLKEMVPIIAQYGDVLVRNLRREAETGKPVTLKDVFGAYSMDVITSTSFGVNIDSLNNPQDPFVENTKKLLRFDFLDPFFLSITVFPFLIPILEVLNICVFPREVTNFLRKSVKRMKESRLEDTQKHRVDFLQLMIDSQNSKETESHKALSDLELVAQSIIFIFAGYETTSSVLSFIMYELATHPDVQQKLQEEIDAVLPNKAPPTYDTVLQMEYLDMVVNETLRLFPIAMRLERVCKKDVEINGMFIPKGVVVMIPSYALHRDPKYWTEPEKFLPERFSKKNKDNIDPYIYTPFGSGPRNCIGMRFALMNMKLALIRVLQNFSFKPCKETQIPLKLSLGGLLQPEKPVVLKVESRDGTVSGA
T6 sequence (Q12809 whole entry): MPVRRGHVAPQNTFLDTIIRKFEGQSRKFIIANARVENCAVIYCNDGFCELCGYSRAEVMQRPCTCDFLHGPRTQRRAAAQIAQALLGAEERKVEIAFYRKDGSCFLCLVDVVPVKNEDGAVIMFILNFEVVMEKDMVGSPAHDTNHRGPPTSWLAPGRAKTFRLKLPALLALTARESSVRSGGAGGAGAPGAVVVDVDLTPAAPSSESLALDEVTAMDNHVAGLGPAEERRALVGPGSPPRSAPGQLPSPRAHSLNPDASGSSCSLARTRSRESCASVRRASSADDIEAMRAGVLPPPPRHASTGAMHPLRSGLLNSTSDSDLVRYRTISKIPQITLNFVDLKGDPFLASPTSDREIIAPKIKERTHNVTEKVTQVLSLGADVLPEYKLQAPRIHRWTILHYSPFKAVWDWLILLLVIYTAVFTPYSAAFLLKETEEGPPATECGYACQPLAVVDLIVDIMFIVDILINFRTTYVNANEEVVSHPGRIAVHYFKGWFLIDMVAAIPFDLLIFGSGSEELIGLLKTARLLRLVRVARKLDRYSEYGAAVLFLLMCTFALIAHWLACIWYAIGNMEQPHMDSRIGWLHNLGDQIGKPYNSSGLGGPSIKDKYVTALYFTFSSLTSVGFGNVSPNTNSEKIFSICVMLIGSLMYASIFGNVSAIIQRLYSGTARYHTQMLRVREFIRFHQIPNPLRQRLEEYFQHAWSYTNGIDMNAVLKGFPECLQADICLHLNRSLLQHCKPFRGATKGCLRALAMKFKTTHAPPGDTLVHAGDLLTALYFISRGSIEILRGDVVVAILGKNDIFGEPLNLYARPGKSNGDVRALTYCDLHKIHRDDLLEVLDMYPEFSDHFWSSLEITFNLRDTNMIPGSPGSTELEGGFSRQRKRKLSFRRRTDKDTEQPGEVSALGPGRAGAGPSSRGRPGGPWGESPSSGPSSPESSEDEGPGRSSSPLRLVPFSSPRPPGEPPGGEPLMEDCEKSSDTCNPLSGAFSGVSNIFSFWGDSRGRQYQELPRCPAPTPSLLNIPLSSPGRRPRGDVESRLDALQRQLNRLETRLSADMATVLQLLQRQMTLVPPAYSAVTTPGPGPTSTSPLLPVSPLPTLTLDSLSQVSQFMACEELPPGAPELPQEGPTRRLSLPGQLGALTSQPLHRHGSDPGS
T1 sequence (P33261 whole entry): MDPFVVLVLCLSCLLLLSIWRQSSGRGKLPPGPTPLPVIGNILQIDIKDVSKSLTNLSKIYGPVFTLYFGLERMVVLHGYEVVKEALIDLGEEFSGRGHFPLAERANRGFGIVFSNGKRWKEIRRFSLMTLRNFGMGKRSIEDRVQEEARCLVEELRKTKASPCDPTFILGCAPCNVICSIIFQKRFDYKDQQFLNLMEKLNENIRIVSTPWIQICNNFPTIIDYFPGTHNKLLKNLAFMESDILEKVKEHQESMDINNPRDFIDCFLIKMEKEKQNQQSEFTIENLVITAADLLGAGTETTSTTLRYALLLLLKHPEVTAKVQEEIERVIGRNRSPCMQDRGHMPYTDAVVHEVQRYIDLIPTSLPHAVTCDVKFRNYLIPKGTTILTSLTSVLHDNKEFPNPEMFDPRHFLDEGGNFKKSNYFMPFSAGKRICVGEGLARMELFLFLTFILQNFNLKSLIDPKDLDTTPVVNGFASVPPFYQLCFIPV
T3 sequence (P11712 whole entry): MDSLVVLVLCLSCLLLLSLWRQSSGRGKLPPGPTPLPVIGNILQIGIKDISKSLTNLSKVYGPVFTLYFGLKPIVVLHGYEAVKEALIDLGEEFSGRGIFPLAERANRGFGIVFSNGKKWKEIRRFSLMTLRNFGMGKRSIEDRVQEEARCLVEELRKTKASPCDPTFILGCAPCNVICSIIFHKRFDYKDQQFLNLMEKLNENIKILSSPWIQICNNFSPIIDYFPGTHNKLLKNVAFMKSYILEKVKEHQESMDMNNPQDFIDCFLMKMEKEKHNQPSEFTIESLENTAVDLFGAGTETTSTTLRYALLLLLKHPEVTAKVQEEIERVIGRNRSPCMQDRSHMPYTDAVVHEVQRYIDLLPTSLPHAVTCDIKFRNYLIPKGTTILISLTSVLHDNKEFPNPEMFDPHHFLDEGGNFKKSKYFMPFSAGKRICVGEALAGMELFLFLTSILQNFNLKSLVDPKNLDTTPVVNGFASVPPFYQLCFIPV
T5 sequence (P10635 whole entry): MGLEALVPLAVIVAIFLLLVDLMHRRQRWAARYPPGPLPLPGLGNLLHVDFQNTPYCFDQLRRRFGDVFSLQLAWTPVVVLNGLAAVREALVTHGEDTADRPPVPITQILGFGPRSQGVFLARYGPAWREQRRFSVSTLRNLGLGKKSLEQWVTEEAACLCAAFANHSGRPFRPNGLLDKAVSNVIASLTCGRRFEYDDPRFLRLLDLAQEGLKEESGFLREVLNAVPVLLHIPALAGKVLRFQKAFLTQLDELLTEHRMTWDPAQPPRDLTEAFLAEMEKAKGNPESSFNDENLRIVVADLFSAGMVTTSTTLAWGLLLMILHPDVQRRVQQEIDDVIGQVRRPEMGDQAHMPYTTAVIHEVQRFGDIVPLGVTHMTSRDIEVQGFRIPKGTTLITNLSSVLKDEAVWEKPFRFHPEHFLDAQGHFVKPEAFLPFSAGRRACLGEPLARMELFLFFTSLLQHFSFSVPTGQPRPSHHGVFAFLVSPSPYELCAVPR

Structure (SMILES) | viability at 24 h, 5 µM [1] [%] | CYP450 (% remaining Activity at 10 μM) CYP2C19 (CYP2C19) [%] | CYP450 (% remaining Activity at 10 μM) CYP1A2 (CYP1A2) [%] | CYP450 (% remaining Activity at 10 μM) CYP2C9 (CYP2C9) [%] | CYP450 (% remaining Activity at 10 μM) CYP3A4 (CYP3A4) [%] | CYP450 (% remaining Activity at 10 μM) CYP2D6 (CYP2D6) [%] | IC50 (hERG channel) [µM] | remaining at 0.5 h, 1 µM [2] [%]
COc1ccc(-n2c(SCC(=O)Nc3ccc(F)c(F)c3)nc3sc4c(c3c2=O)CCN(C(C)=O)C4)cc1 [Compound 27] | 92 |  |  |  |  |  |  | 
CCOc1ccc(-n2c(SCC(=O)NCCN3CCCCC3)nc3sc4c(c3c2=O)CCN(C(C)=O)C4)cc1 [Compound 28] | 71 |  |  |  |  |  |  | 
CCOc1ccc(-n2c(SCC(=O)N(CC)CC)nc3sc4c(c3c2=O)CCN(C(C)=O)C4)cc1 [Compound 38] | 77 |  |  |  |  |  |  | 
CCCN(CCC)C(=O)CSc1nc2sc3c(c2c(=O)n1-c1ccc(OCC)cc1)CCN(C(C)=O)C3 [Compound 39] | 99 | 64.0 | 143.1 | 61.0 | 51.8 | 95.1 | 5.87 ± 1.18 | 
CCCCN(CCCC)C(=O)CSc1nc2sc3c(c2c(=O)n1-c1ccc(OCC)cc1)CCN(C(C)=O)C3 [Compound 40] | 107 | 57.4 | 103.0 | 33.6 | 38.9 | 79.8 | 2.43 ± 0.48 | 
CCCCNC(=O)CSc1nc2sc3c(c2c(=O)n1-c1ccc(OCC)cc1)CCN(C(C)=O)C3 [Compound 43] | 79 |  |  |  |  |  |  | 
CCOc1ccc(-n2c(SCC(=O)N3CCN(Cc4ccccc4)CC3)nc3sc4c(c3c2=O)CCN(C(C)=O)C4)cc1 [Compound 45] | 113 | 23.2 | 110.5 | 14.9 | 89.1 | 107.0 |  | 4.3
CCOc1ccc(-n2c(SCC(=O)N3CCC(c4ccccc4)CC3)nc3sc4c(c3c2=O)CCN(C(C)=O)C4)cc1 [Compound 46] | 86 | 16.5 | 84.4 | 6.7 | 81.2 | 72.3 |  | 6.6
CCOc1ccc(-n2c(SCC(=O)N3CCC(Cc4ccccc4)CC3)nc3sc4c(c3c2=O)CCN(C(C)=O)C4)cc1 [Compound 47] | 94 | 15.0 | 81.5 | 15.6 | 66.2 | 64.0 |  | 2.2
CCOc1ccc(-n2c(SCC(=O)Nc3ccc(Cl)cc3)nc3sc4c(c3c2=O)CCN(C)C4)cc1 [Compound 53] | 89 |  |  |  |  |  |  | 
CCOc1ccc(-n2c(SCC(=O)NCc3ccc(C)cc3)nc3sc4c(c3c2=O)CCN(C)C4)cc1 [Compound 54] | 107 |  |  |  |  |  |  | 
CCCN(CCC)C(=O)CSc1nc2sc3c(c2c(=O)n1-c1ccc(OCC)cc1)CCN(C)C3 [Compound 56] | 108 | 30.5 | 71.9 | 44.5 | 30.9 | 89.2 | 12.9 ± 3.03 | 
CCCCN(CCCC)C(=O)CSc1nc2sc3c(c2c(=O)n1-c1ccc(OCC)cc1)CCN(C)C3 [Compound 57] | 110 |  |  |  |  |  |  | 
CCn1c(SCC(=O)Nc2ccc(OC)c(OC)c2)nc2sc3c(c2c1=O)CCN(C(C)=O)C3 [Compound 58] | 99 |  |  |  |  |  |  | 
CCCn1c(SCC(=O)Nc2ccc(OC)c(OC)c2)nc2sc3c(c2c1=O)CCN(C(C)=O)C3 [Compound 59] | 112 |  |  |  |  |  |  | 
COc1ccc(NC(=O)CSc2nc3sc4c(c3c(=O)n2CC(C)C)CCN(C(C)=O)C4)cc1OC [Compound 60] | 96 |  |  |  |  |  |  | 
CCCCn1c(SCC(=O)Nc2ccc(OC)c(OC)c2)nc2sc3c(c2c1=O)CCN(C(C)=O)C3 [Compound 61] | 97 |  |  |  |  |  |  | 
COc1ccc(NC(=O)CSc2nc3sc4c(c3c(=O)n2C(C)C)CCN(C(C)=O)C4)cc1OC [Compound 62] | 94 |  |  |  |  |  |  | 
